The compounds below were run against T1, NEDD8 activating enzyme (Homo sapiens, UniProt Q8TBC4) (assay: Inhibition of recombinant human NAEalpha/N-terminal His-tagged NAEbeta expressed in baculovirus infected insect Sf9 cells using N-terminal FLAG tagged Nedd8 as substrate incubated for 105 mins in presence of N-terminal GST-tagged Ubc12 by FRET assay).
T1 sequence (Q8TBC4 whole entry): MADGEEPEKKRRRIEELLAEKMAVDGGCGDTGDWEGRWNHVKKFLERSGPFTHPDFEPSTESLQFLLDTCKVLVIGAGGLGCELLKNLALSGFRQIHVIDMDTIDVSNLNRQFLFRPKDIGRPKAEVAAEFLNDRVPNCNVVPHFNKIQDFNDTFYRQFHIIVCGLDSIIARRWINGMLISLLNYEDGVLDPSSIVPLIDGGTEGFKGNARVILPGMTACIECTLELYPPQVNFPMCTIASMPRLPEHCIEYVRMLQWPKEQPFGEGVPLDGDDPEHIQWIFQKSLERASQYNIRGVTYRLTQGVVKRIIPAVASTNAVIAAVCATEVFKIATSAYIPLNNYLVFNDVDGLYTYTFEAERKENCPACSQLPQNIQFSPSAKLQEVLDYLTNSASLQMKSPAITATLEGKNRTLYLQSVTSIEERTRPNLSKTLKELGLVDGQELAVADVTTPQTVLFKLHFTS
T1 sequence (Q13564 whole entry): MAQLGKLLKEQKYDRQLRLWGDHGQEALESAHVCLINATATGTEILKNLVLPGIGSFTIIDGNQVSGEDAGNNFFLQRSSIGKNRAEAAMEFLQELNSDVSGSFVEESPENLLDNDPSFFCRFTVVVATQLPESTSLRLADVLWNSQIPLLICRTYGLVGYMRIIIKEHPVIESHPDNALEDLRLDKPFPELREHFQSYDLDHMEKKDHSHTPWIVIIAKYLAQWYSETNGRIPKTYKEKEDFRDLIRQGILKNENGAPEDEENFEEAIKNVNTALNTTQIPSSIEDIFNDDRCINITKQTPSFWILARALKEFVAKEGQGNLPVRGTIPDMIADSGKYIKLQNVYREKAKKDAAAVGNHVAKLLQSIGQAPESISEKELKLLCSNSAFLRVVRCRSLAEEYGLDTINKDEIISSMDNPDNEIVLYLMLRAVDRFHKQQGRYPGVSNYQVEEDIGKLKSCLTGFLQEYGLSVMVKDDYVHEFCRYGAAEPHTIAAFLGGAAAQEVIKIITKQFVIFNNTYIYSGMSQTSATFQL
NS(=O)(=O)OC[C@H]1C[C@@H](Nc2ncnc(N[C@@H]3CCc4ccccc43)n2)[C@H](O)[C@@H]1O gave an IC50 of no more than 500 nM. For CO[C@H]1CC(C)(C)c2ccccc2[C@H]1Nc1cc(O[C@@H]2C[C@@H](COS(N)(=O)=O)[C@@H](O)C2)ncn1, the IC50 was no more than 500 nM. COc1ccc2c(c1)[C@@H](Nc1cc(O[C@@H]3C[C@@H](COS(N)(=O)=O)[C@@H](O)C3)ncn1)[C@@H](OC)CC2 was tested, and the IC50 was 500 to 10000 nM. NS(=O)(=O)OC[C@@H]1C[C@@H](Oc2ncnc3[nH]c(-c4cccc5ccccc45)nc23)C[C@@H]1O was tested, and the IC50 was no more than 500 nM. With NS(=O)(=O)OC[C@@H]1C[C@@H](Nc2ncnc3[nH]c(-c4ccccc4)cc23)C[C@@H]1O the IC50 was no more than 500 nM. Cc1cccc(-c2nc3c(N[C@@H]4C[C@@H](COS(N)(=O)=O)[C@@H](O)C4)ncnc3[nH]2)c1C gave an IC50 of no more than 500 nM. For CO[C@H]1c2ccccc2C[C@H]1Oc1cc(O[C@@H]2C[C@@H](COS(N)(=O)=O)[C@@H](O)C2)ncn1, the IC50 was 500 to 10000 nM. CC1(C)C[C@H](Nc2cc(N[C@@H]3C[C@H](COS(N)(=O)=O)[C@@H](O)[C@H]3O)ncn2)c2ccccc21 showed an IC50 of no more than 500 nM. Cc1nc(N)cc(N[C@@H]2C[C@H](COS(N)(=O)=O)[C@@H](O)[C@H]2O)n1 showed an IC50 greater than 10000 nM. NS(=O)(=O)OC[C@H]1C[C@@H](Nc2cc(N[C@@H]3CCC[C@H]3OCc3ccccc3)ncn2)[C@H](O)[C@@H]1O showed an IC50 greater than 10000 nM. In the case of CC1CC(Nc2nccc(N[C@@H]3C[C@H](COS(N)(=O)=O)[C@@H](O)[C@H]3O)n2)c2ccccc21 (stereo partly specified), the IC50 is reported as no more than 500 nM. With NS(=O)(=O)OC[C@@H]1C[C@@H](Nc2ncnc3[nH]c(-c4cccc(-c5ccccc5)c4)nc23)C[C@@H]1O the IC50 was no more than 500 nM. NS(=O)(=O)OC[C@@H]1C[C@@H](Oc2cc(N3Cc4ccccc4C3)ncn2)C[C@@H]1O gave an IC50 of 500 to 10000 nM. For CN(C)c1ccc(-c2nc3ncnc(O[C@@H]4C[C@@H](COS(N)(=O)=O)[C@@H](O)C4)c3[nH]2)c2ccccc12, the IC50 was no more than 500 nM. Work on NS(=O)(=O)OC[C@@H]1C[C@@H](Nc2cc(CCc3ccccc3)ncn2)C[C@@H]1O yielded an IC50 of 500 to 10000 nM. With NS(=O)(=O)OC[C@@H]1C[C@@H](Nc2ncnc(N[C@@H]3c4ccccc4CC3(F)F)n2)C[C@@H]1O the IC50 was no more than 500 nM. Compound NS(=O)(=O)OC[C@H]1C[C@@H](Nc2ncnc3[nH]cnc23)[C@H](O)[C@@H]1O has an IC50 of no more than 500 nM. COc1cccc(-c2nc3c(N[C@@H]4C[C@@H](COS(N)(=O)=O)[C@@H](O)C4)ncnc3[nH]2)c1 was tested, and the IC50 was no more than 500 nM. With CO[C@H]1Cc2ccccc2[C@H]1Nc1cc(O[C@@H]2C[C@@H](CNS(N)(=O)=O)[C@@H](O)C2)ncn1 the IC50 was no more than 500 nM. NS(=O)(=O)OC[C@H]1C[C@@H](Nc2cc(NCc3ccccc3)ncn2)[C@H](O)[C@@H]1O gave an IC50 of no more than 500 nM. NS(=O)(=O)OC[C@@H]1C[C@@H](Nc2ncnc3[nH]c(-c4cccc5ccccc45)nc23)C[C@@H]1O showed an IC50 of no more than 500 nM. Work on NS(=O)(=O)OC[C@H]1C[C@@H](Nc2cc(C#Cc3ccccc3)ncn2)[C@H](O)[C@@H]1O yielded an IC50 of no more than 500 nM. CN(c1ncnc2[nH]c(-c3cccc4ccccc34)nc12)[C@@H]1C[C@@H](COS(N)(=O)=O)[C@@H](O)C1 gave an IC50 of no more than 500 nM. NS(=O)(=O)OC[C@@H]1C[C@@H](Nc2ncnc3nc(-c4ccc(OCc5ccccc5)cc4)[nH]c23)C[C@@H]1O gave an IC50 of no more than 500 nM. NS(=O)(=O)OC[C@@H]1C[C@@H](Nc2ncnc3nc(-c4cccc5cccnc45)[nH]c23)C[C@@H]1O showed an IC50 of no more than 500 nM. NS(=O)(=O)OC[C@H]1C[C@@H](Nc2cc(N[C@H]3CCc4c(F)ccc(F)c43)ncn2)[C@H](O)[C@@H]1O showed an IC50 of no more than 500 nM. NS(=O)(=O)OC[C@H]1C[C@@H](Nc2cc(N[C@H]3CCc4c(F)cccc43)ncn2)[C@H](O)[C@@H]1O gave an IC50 of no more than 500 nM. In the case of NS(=O)(=O)OC[C@@H]1C[C@@H](Nc2c(Cl)cnc3[nH]c(-c4cccc5ccccc45)nc23)C[C@@H]1O, the IC50 is reported as no more than 500 nM. Cc1cccc(Sc2nc3ncnc(O[C@@H]4C[C@@H](COS(N)(=O)=O)[C@@H](O)C4)c3[nH]2)c1 was tested, and the IC50 was no more than 500 nM. CC1(C)C[C@H](Nc2cc(O[C@@H]3C[C@@H](COS(N)(=O)=O)[C@@H](O)C3)ccn2)c2ccc(Cl)cc21 was tested, and the IC50 was 500 to 10000 nM. Cc1cccc(S(=O)(=O)c2nc3c(O[C@@H]4C[C@@H](COS(N)(=O)=O)[C@@H](O)C4)ncnc3[nH]2)c1 was tested, and the IC50 was no more than 500 nM. Work on CN(C)C[C@H]1Cc2ccccc2[C@H]1Nc1cc(O[C@@H]2C[C@@H](COS(N)(=O)=O)[C@@H](O)C2)ncn1 yielded an IC50 of 500 to 10000 nM. Work on NS(=O)(=O)OC[C@H]1C[C@@H](Nc2cc(N[C@H]3CCC[C@@H]3OCc3ccccc3)ncn2)[C@H](O)[C@@H]1O yielded an IC50 of 500 to 10000 nM. Compound NS(=O)(=O)OC[C@@H]1C[C@@H](Oc2ccncn2)C[C@@H]1O has an IC50 greater than 10000 nM. NS(=O)(=O)OC[C@@H]1C[C@@H](Oc2cc(OCc3ccc(Cl)cc3)ncn2)C[C@@H]1O was tested, and the IC50 was greater than 10000 nM. NS(=O)(=O)OC[C@@H]1C[C@@H](Nc2ncnc3[nH]c(C4CCCCC4)nc23)C[C@@H]1O gave an IC50 of no more than 500 nM. CC1(C)C[C@H](Nc2ncnc(N[C@@H]3C[C@@H](COS(N)(=O)=O)[C@@H](O)C3)c2F)c2ccccc21 showed an IC50 of no more than 500 nM. In the case of NS(=O)(=O)OC[C@H]1C[C@@H](Nc2cc(N[C@H]3CCc4ccccc43)ncn2)[C@H](O)[C@@H]1O, the IC50 is reported as no more than 500 nM. NS(=O)(=O)OC[C@H]1C[C@@H](O)[C@H](Nc2cc(N[C@H]3CCc4ccccc43)ncn2)C1 was tested, and the IC50 was greater than 10000 nM. NS(=O)(=O)OC[C@@H]1C[C@@H](Nc2ncnc3nc(-c4cccc5c4OCC5)[nH]c23)C[C@@H]1O showed an IC50 of no more than 500 nM. Compound NS(=O)(=O)OC[C@@H]1C[C@@H](Oc2ncnc3nc(-c4cncc5ccccc45)[nH]c23)C[C@@H]1O has an IC50 of no more than 500 nM. For NS(=O)(=O)OC[C@@H]1C[C@@H](Nc2ncnc3[nH]c(-c4ccccc4Cl)nc23)C[C@@H]1O, the IC50 was no more than 500 nM. NS(=O)(=O)OC[C@@H]1C[C@@H](Nc2ncnc3[nH]c(-c4cccc(Cl)c4)nc23)C[C@@H]1O was tested, and the IC50 was no more than 500 nM. For NS(=O)(=O)OC[C@@H]1C[C@@H](Nc2ncnc3[nH]c(-c4cccc5c4CCCC5)nc23)C[C@@H]1O, the IC50 was no more than 500 nM. Compound NS(=O)(=O)OC[C@@H]1C[C@@H](Oc2cc(N3CCc4ccccc4C3)ncn2)C[C@@H]1O has an IC50 greater than 10000 nM. NS(=O)(=O)OC[C@H]1C[C@@H](Nc2ccnc(C(=O)N3CCc4ccccc43)c2)[C@H](O)[C@@H]1O gave an IC50 greater than 10000 nM. Cc1ccccc1-c1nc2c(N[C@@H]3C[C@@H](COS(N)(=O)=O)[C@@H](O)C3)ncnc2[nH]1 gave an IC50 of no more than 500 nM. NS(=O)(=O)OC[C@H]1C[C@@H](Nc2cc(N[C@H]3CCc4ccccc43)ncn2)C[C@@H]1O was tested, and the IC50 was no more than 500 nM. NS(=O)(=O)OC[C@@H]1C[C@@H](Nc2cc(N[C@H]3CCc4ccccc43)ncn2)C[C@@H]1O showed an IC50 of no more than 500 nM. Work on CO[C@H]1Cc2ccccc2[C@H]1Nc1cc(O[C@@H]2C[C@@H](COS(N)(=O)=O)[C@@H](O)C2)ncn1 yielded an IC50 of no more than 500 nM. With NS(=O)(=O)OC[C@@H]1C[C@@H](Nc2ncnc3[nH]c(-c4ccccc4Oc4ccccc4)nc23)C[C@@H]1O the IC50 was no more than 500 nM. NS(=O)(=O)OC[C@@H]1C[C@@H](Oc2cc(NC3CCCC3)ncn2)C[C@@H]1O was tested, and the IC50 was 500 to 10000 nM. Compound NS(=O)(=O)OC[C@H]1CC[C@H](Oc2ncnc3[nH]c(-c4cccc5ccccc45)nc23)C1 has an IC50 of 500 to 10000 nM. CN(C)c1ccccc1-c1nc2c(N[C@@H]3C[C@@H](COS(N)(=O)=O)[C@@H](O)C3)ncnc2[nH]1 showed an IC50 of no more than 500 nM. CC1(C)Cc2cccc(-c3nc4c(N[C@@H]5C[C@@H](COS(N)(=O)=O)[C@@H](O)C5)ncnc4[nH]3)c2O1 showed an IC50 of no more than 500 nM. Compound Cc1nc(N[C@H]2CCc3ccccc32)cc(N[C@@H]2C[C@H](COS(N)(=O)=O)[C@@H](O)[C@H]2O)n1 has an IC50 of no more than 500 nM.
